One assay concerns the target T1, human PI3Kδ enzyme (Homo sapiens, UniProt O00329).
T1 construct: purchased Millipore Corporation 14-604
Put plainly: PI3Kδ enzyme inhibitory activity (PI3-Kinase HTRF Assay kit). Conditions: human PI3Kδ 10 ng/well, ATP 30 μM, PIP2 10 μM, room temperature 30 minutes. Format: biochemical. As to the method:
1. PI3Kδ Enzyme Inhibitory Activity
For the experiment, a PI3-Kinase HTRF Assay kit (Millipore Corporation, Catalogue No. 33-016) and a human PI3Kδ enzyme (Millipore Corporation, Catalogue No. 14-604) were used. The measurement method was in accordance with the appended instructions. The overview thereof is as follows.
PI3Kδ (10 ng/well), phosphatidylinositol-4,5-bisphosphate (10 μM), ATP (30 μM), and the test compound were mixed in a 384-well plate (total 20 μL), and incubated at room temperature for 30 minutes. EDTA and biotinylated phosphatidylinositol-3,4,5-triphosphate were added thereto to stop the reaction. Thereafter, a Europium labeled anti-GST antibody, a GST bond GRP1 PH domain, and streptavidin-APC were added thereto, followed by incubation overnight. An HTRF ratio was measured using an HTRF plate reader.

The target in the next assay is T2, Human PI3Kα (Homo sapiens, UniProt P42336).
T2 construct: purchased Millipore Corporation 14-602
Put plainly: PI3Kα enzyme inhibitory activity (Kinase-Glo Plus luminescence). The format is biochemical. Conditions: human PI3Kα 12 ng/well, phosphatidylinositol 0.2 μg/well, 37° C. 3 hours. How it is done:
2. PI3Kα Enzyme Inhibitory Activity
Human PI3Kα (12 ng/well, Millipore Corporation, Catalogue No. 14-602), phosphatidylinositol (0.2 μg/well), and the test compound were mixed in a 384-well plate in a reaction buffer (50 mM Hepes, 10 mM NaCl, 10 mM MgCl2, 2 mM EGTA, 2 mM DTT, pH 7.3) (total 10 μl), and incubated at 37° C. for 3 hours. After the reaction, 10 μL of a Kinase-Glo Plus reagent (Promega, Catalogue No. V3772) was added thereto, and a luminescence was measured with a luminometer.

The subject of assay [1] is Spleen cells prepared from male LEW/CrlCrlj rats (B cell proliferation). Description: Rat B cell proliferation inhibition test (anti-rat IgM, [3H]thymidine). Format: cell-based. To be noted: anti-rat IgM 3 μg/well, 48 hours culture. As to the method: 4. Rat B Cell Proliferation Inhibition Test
Spleen cells (1.0×10^5 cells/well) prepared from male LEW/CrlCrlj rats (Charles River Laboratories, Japan, Inc.), mouse F(ab′)2 fragment anti-rat IgM (3 μg/well, SouthernBiotech Associates, Inc., Catalogue No. 3082-14) and the test compound dissolved in DMSO (final DMSO concentration 0.1%) were mixed in a 96-well plate using a 10% FCS-containing RPMI-1640 culture medium (total 200 μL). They were cultured in a CO2 incubator for 48 hours and [^3H]thymidine (925 GBq/mmol, Moravek Biochemicals, Inc., Catalogue No. MT6038) was added thereto at 0.037 MBq/well at 4 hours before completion of culture. Cells were harvested in a GF/C glass filter using a cell harvester, and a radioactivity on the filter was measured using a liquid scintillation counter.

37 molecules from US8912180B2, “Heterocyclic compound” (Astellas Pharma Inc., priority 2010, dated 2014) can be followed below.

What is called IC50 is the concentration needed to halve the response being measured.

Structures can show the parent of a compound that is named as a salt.

T1 sequence (O00329 whole entry): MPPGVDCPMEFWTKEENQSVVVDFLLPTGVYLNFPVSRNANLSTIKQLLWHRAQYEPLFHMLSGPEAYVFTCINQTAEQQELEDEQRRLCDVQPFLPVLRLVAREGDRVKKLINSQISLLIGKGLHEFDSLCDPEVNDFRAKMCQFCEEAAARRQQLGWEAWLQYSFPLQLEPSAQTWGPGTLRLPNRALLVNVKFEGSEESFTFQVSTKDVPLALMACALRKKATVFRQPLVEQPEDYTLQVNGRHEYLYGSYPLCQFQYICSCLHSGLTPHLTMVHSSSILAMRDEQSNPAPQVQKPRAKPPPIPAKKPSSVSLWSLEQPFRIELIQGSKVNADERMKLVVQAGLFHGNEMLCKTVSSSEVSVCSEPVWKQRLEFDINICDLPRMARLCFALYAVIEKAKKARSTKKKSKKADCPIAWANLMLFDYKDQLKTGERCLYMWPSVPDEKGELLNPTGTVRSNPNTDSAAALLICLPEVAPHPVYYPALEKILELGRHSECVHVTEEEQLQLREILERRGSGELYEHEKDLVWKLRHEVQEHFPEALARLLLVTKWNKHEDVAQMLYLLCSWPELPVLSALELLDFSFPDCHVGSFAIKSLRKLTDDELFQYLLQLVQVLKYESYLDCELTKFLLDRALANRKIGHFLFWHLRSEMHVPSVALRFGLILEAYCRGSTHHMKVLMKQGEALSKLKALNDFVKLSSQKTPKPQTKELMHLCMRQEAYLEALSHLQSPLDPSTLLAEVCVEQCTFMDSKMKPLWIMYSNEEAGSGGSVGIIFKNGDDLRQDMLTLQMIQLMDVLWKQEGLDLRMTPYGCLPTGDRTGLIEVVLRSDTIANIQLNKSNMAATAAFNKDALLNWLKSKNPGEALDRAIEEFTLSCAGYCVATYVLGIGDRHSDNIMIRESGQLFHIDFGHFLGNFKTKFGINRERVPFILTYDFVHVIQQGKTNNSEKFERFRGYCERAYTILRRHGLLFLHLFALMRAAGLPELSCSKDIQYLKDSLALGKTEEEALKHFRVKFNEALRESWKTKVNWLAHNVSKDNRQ
T1 sequence (P27986 whole entry partner): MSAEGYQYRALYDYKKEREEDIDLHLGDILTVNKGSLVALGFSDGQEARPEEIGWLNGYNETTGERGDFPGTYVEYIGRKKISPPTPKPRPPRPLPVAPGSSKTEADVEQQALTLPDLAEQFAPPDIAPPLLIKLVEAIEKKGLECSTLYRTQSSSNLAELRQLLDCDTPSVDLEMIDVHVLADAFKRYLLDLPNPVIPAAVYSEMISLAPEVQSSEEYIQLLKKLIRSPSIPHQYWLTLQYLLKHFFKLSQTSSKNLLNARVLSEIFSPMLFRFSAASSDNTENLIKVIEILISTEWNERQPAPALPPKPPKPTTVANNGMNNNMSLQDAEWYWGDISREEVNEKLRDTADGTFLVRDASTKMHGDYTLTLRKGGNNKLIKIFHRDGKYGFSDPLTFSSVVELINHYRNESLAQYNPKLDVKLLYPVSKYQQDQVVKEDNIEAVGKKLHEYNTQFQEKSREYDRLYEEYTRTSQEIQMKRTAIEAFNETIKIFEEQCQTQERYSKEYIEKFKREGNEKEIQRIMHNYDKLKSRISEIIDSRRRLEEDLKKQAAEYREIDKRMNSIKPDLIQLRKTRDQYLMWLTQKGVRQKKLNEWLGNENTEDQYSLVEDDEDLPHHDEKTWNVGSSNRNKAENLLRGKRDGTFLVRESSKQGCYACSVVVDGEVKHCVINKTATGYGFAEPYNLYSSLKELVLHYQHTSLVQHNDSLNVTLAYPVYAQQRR
T2 sequence (P42336 whole entry): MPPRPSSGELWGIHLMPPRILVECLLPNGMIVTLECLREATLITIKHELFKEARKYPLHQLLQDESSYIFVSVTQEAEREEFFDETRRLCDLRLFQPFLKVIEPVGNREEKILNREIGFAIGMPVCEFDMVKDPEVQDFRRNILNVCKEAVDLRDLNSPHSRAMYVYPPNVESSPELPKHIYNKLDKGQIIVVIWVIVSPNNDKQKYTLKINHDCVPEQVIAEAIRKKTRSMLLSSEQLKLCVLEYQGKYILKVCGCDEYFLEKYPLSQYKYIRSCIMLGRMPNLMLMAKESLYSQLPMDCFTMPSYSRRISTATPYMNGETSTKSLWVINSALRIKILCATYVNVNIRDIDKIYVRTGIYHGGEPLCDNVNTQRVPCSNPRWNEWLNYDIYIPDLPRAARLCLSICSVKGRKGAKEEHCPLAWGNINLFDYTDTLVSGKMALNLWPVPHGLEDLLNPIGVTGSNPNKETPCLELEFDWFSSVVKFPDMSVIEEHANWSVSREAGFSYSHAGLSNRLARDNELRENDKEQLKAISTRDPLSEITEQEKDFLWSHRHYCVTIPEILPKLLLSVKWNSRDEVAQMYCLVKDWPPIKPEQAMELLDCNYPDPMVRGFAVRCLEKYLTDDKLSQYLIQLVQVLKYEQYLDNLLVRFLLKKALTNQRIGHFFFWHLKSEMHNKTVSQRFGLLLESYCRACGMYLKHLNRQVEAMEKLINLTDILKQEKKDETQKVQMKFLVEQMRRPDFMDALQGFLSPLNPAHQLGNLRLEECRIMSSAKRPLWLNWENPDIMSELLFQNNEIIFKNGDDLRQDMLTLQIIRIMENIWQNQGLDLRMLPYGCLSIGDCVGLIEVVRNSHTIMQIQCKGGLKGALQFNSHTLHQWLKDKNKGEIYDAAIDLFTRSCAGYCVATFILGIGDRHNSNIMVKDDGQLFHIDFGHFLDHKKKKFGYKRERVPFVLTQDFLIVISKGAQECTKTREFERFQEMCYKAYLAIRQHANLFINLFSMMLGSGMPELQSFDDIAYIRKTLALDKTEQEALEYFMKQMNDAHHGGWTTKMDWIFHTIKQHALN
T2 sequence (P27986 whole entry partner): as the sequence (P27986 whole entry partner) above

With `O=C([C@H]1CCCO1)N1CC[C@H](Nc2cc(-n3c(C(F)F)nc4ccccc43)nc(N3CCOCC3)n2)C1` [A290], the values for the IC50 (against human PI3Kδ enzyme; at Human PI3Kα; in assay [1]) were 7.4 nM, 3800 nM and 2.2 nM, respectively.

For `O=C(C1CCOCC1)N1CC[C@H](Nc2cc(-n3c(C(F)F)nc4ccccc43)nc(N3CCOCC3)n2)C1` [A293], the IC50 against human PI3Kδ enzyme is 19 nM; at Human PI3Kα, 3200 nM; in assay [1], 2.6 nM.

In the case of `COC(=O)N1CCC(C(=O)N2CC[C@H](Nc3cc(-n4c(C(F)F)nc5ccccc54)nc(N4CCOCC4)n3)C2)CC1` [A298], the values for the IC50 (at human PI3Kδ enzyme; at Human PI3Kα; in assay [1]) were 28 nM, 3500 nM and 1.2 nM, respectively.

Regarding `O=C(CC1CCCO1)N1CC[C@H](Nc2cc(-n3c(C(F)F)nc4ccccc43)nc(N3CCOCC3)n2)C1` (stereo partly drawn) [A299], the IC50 is 25 nM on human PI3Kδ enzyme, 4900 nM at Human PI3Kα and 2.5 nM in assay [1].

Turning to `O=C(CC1CCOCC1)N1CC[C@H](Nc2cc(-n3c(C(F)F)nc4ccccc43)nc(N3CCOCC3)n2)C1` [A300], the IC50 at human PI3Kδ enzyme is 26 nM; at Human PI3Kα it was 6500 nM; in assay [1], 2.6 nM.

With `O=C(C1CCOC1)N1CC[C@H](Oc2cc(-n3c(C(F)F)nc4ccccc43)nc(N3CCOCC3)n2)C1` (stereo partly drawn) [A449], the results for the IC50 (at human PI3Kδ enzyme; on Human PI3Kα; in assay [1]) were 20 nM, 1400 nM and 0.4 nM, respectively.

For `CN1CC(C(=O)N2CC[C@H](Oc3cc(-n4c(C(F)F)nc5ccccc54)nc(N4CCOCC4)n3)C2)CC1=O` (stereo partly drawn) [A451], the IC50 on human PI3Kδ enzyme stood at 35 nM; at Human PI3Kα, 2200 nM; in assay [1], 1.2 nM.

`CC(=O)N1CCC(CC(=O)N2CC[C@H](Nc3cc(-n4c(C(F)F)nc5ccccc54)nc(N4CCOCC4)n3)C2)CC1` [A463]: the IC50 against human PI3Kδ enzyme was 27 nM; on Human PI3Kα it was 3100 nM; in assay [1], 1.4 nM.

On to `O=C(C1CCOC1)N1CC[C@H](Nc2cc(-n3c(C(F)F)nc4ccccc43)nc(N3CCOCC3)n2)C1` (stereo partly drawn) [A464], for which the values for the IC50 against human PI3Kδ enzyme and at Human PI3Kα were 10 nM and 2200 nM, respectively.

As for `CN1CC(C(=O)N2CC[C@H](Nc3cc(-n4c(C(F)F)nc5ccccc54)nc(N4CCOCC4)n3)C2)CC1=O` (stereo partly drawn) [A466], the IC50 against human PI3Kδ enzyme came to 15 nM; on Human PI3Kα, 2000 nM; in assay [1] it was 1.8 nM.

Take `O=C(CN1CCCCC1)N1CC[C@H](Nc2cc(-n3c(C(F)F)nc4ccccc43)nc(N3CCOCC3)n2)C1` [A475]: the IC50 is 25 nM on human PI3Kδ enzyme, 1400 nM on Human PI3Kα and 1.1 nM in assay [1].

For `O=C1CC[C@@H](C(=O)N2CC(Nc3cc(-n4c(C(F)F)nc5ccccc54)nc(N4CCOCC4)n3)C2)N1` [A562], the IC50 was 14 nM at human PI3Kδ enzyme, 2900 nM at Human PI3Kα and 3.9 nM in assay [1].

Take `CC(=O)N1CCC(CC(=O)N2CC(Nc3cc(-n4c(C(F)F)nc5ccccc54)nc(N4CCOCC4)n3)C2)CC1` [A564]: the IC50 at human PI3Kδ enzyme is 19 nM; in assay [1] it was 2.2 nM.

With `CC(C)(C)OC(=O)N1CC[C@H](Nc2nc(N3CCOCC3)cc(-n3c(C(F)F)nc4ccccc43)n2)C1` [Example 1, tert-butyl (3S)-3-({4-[2-(difluoromethyl)-1H-benzimidazol-1-yl]-6-morpholin-4-ylpyrimidin-2-yl}amino)pyrrolidine-1-carboxylate], the results for the IC50 against human PI3Kδ enzyme and at Human PI3Kα were 29 nM and 2800 nM, respectively.

For the molecule `CN1CCC(CNc2cc(-n3c(C(F)F)nc4ccccc43)nc(N3CCOCC3)n2)CC1` [Example 4], the IC50 on human PI3Kδ enzyme was 60 nM; at Human PI3Kα, over 3000 nM.

Turning to `C[C@H]1COCCN1c1cc(-n2c(C(F)F)nc3ccccc32)nc(NCC2CCN(C(=O)OC(C)(C)C)CC2)n1` [Example 13], the IC50 on human PI3Kδ enzyme amounted to 36 nM; on Human PI3Kα it was 980 nM.

In the case of `CC(C)(C)OC(=O)N1CCC(CNc2nc(N3CCOC[C@@H]3CF)cc(-n3c(C(F)F)nc4ccccc43)n2)CC1` [Example 16], the 50% inhibitory concentration (IC50) against human PI3Kδ enzyme was 69 nM; at Human PI3Kα it was over 10000 nM.

Consider `CC(C)(C)OC(=O)N1CCC[C@H](CNc2nc(N3CCOCC3)cc(-n3c(C(F)F)nc4ccccc43)n2)C1` [Example 18], for which the IC50 at human PI3Kδ enzyme stood at 50 nM; at Human PI3Kα it was 7700 nM.

`C[C@H]1COCCN1c1cc(-n2c(C(F)F)nc3ccccc32)nc(NC[C@H]2CCCN(C(=O)OC(C)(C)C)C2)n1` [Example 20]: the figures for the IC50 on human PI3Kδ enzyme and on Human PI3Kα were 19 nM and 1800 nM, respectively.

With `FC(F)c1nc2ccccc2n1-c1cc(N2CCOCC2)nc(NCCC2CCN(Cc3ccccc3)CC2)n1` [Example 25], the IC50 came to 69 nM against human PI3Kδ enzyme and 6200 nM on Human PI3Kα.

On to `OC1CCC(N2CCC(CNc3nc(N4CCOCC4)cc(-n4c(C(F)F)nc5ccccc54)n3)CC2)CC1` (stereo not drawn) [Example 28], for which the IC50 is 35 nM on human PI3Kδ enzyme and over 3000 nM on Human PI3Kα.

Consider `CC(C)(C)OC(=O)N1CCC(N2CCC(CNc3nc(N4CCOCC4)cc(-n4c(C(F)F)nc5ccccc54)n3)CC2)CC1` [Example 30], for which the IC50 on human PI3Kδ enzyme is 12 nM; on Human PI3Kα, over 3000 nM.

For `FCC(CF)N1CCC(CNc2nc(N3CCOCC3)cc(-n3c(C(F)F)nc4ccccc43)n2)CC1` [Example 35], the IC50 against human PI3Kδ enzyme was found to be 18 nM; on Human PI3Kα, 4200 nM.

`FC(F)c1nc2ccccc2n1-c1cc(N2CCOCC2)nc(NCC2CCN(CC3CCOCC3)CC2)n1` [Example 39]: the IC50 on human PI3Kδ enzyme came to 27 nM; on Human PI3Kα, 3900 nM.

Turning to `FC(F)c1nc2ccccc2n1-c1cc(N2CCOCC2)nc(NCC2CCN(c3ccccc3)CC2)n1` [Example 44, 4-[2-(difluoromethyl)-1H-benzimidazol-1-yl]-6-(morpholin-4-yl)-N-[(1-phenylpiperidin-4-yl)methyl]pyrimidin-2-amine dihydrochloride], the IC50 came out at 14 nM on human PI3Kδ enzyme and 5000 nM at Human PI3Kα.

Take `CN(C)CCN1CC[C@H](Nc2nc(N3CCOCC3)cc(-n3c(C(F)F)nc4ccccc43)n2)C1` [Example 45, 4-[2-(difluoromethyl)-1H-benzimidazol-1-yl]-N-{(3S)-1-[2-(dimethylamino)ethyl]pyrrolidin-3-yl}-6-morpholin-4-ylpyrimidin-2-amine dihydrochloride]: the IC50 worked out at 56 nM against human PI3Kδ enzyme and 6800 nM at Human PI3Kα.

For `CN(C)CC(=O)N1CCC(CNc2nc(N3CCOCC3)nc(-n3c(C(F)F)nc4ccccc43)n2)CC1` [Example 67], the IC50 on human PI3Kδ enzyme was found to be 47 nM; on Human PI3Kα, 990 nM.

On to `CN(C)CC(=O)N1CC(Nc2nc(N3CCOCC3)cc(-n3c(C(F)F)nc4ccccc43)n2)C1` [Example 69], for which inhibition at human PI3Kδ enzyme was half-maximal at 22 nM (IC50).

As to `Fc1ccc(N2CCC(CNc3nc(N4CCOCC4)cc(-n4c(C(F)F)nc5ccccc54)n3)CC2)cc1` [Example 75], the IC50 came to 25 nM against human PI3Kδ enzyme and 5400 nM at Human PI3Kα.

Regarding `Fc1ccccc1N1CCC(CNc2nc(N3CCOCC3)cc(-n3c(C(F)F)nc4ccccc43)n2)CC1` [Example 77], the IC50 came to 18 nM on human PI3Kδ enzyme and 5400 nM on Human PI3Kα.

As for `COc1ccc(N2CCC(CNc3nc(N4CCOCC4)cc(-n4c(C(F)F)nc5ccccc54)n3)CC2)cc1` [Example 78], the 50% inhibitory concentration (IC50) against human PI3Kδ enzyme was determined as 8.5 nM; at Human PI3Kα, 2900 nM.

On to `CN(C)CC(=O)N[C@H]1CCC[C@H](Nc2cc(-n3c(C(F)F)nc4ccccc43)nc(N3CCOCC3)n2)C1` [Example 100], for which the IC50 against human PI3Kδ enzyme was 5.7 nM; at Human PI3Kα, over 3000 nM.

On to `FC(F)c1nc2ccccc2n1-c1cc(N2CCOCC2)nc(NCC23CCC(N4CCOCC4)(CC2)CC3)n1` [Example 120], for which the IC50 at human PI3Kδ enzyme came out at 27 nM; on Human PI3Kα, 6400 nM.

For `FC(F)c1nc2ccccc2n1-c1cc(N[C@H]2CCC[C@@H](N3CCOCC3)C2)nc(N2CCOCC2)n1` [Example 123], the IC50 at human PI3Kδ enzyme was 4.5 nM; at Human PI3Kα, over 3000 nM.

Take `O=C(CNCC1CC1)N[C@H]1CC[C@H](Oc2cc(-n3c(C(F)F)nc4ccccc43)nc(N3CCOCC3)n2)CC1` [Example 133]: the values for the IC50 at human PI3Kδ enzyme and on Human PI3Kα were 5.2 nM and 5900 nM, respectively.

On to `C[C@@H]1C[C@H](N2CCC(CNc3nc(N4CCOCC4)cc(-n4c(C(F)F)nc5ccccc54)n3)CC2)C[C@H](C)O1` [Example 194], for which the IC50 against human PI3Kδ enzyme is 5.8 nM; on Human PI3Kα, 3300 nM.

As for `COC(=O)N[C@@H]1CCN([C@H]2CC[C@H](Nc3cc(-n4c(C(F)F)nc5ccccc54)nc(N4CCOCC4)n3)CC2)C1=O` [Example 371], the IC50 against human PI3Kδ enzyme was determined as 35 nM; on Human PI3Kα it was 5000 nM.
